The record followed here is the supplement of paper PMC11061612.

What all share (assay): combination Emax (second highest fraction inhibited in the dose matrix, 72 h); higher = more inhibition; extreme values may be limits of the assay
Experiment [1] concerns 8505C (Thyroid Gland Carcinoma). The method in brief:
(§1)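 Cell lines in DMEM/F12 or RPMI with 10% FBS were plated in 1536-well plates, held 24 hours at 37°C, 5% CO2, then given two-drug dose matrices for 72 hours (DMSO typically 0.2%). Viability was read by CellTiter-Glo 2.0 luminescence and scaled as inhibition from 0 (vehicle wells) to 1 (blank wells). Combination Emax is the second-highest inhibition in the matrix; Bliss excess is observed combination effect minus expected EA + EB − EA·EB, EA and EB being single-agent effects.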

In experiment [2] the test system is COR-L279 (Small Cell Lung Carcinoma). The method in brief:
as §1

The test system of experiment [3] is ESO51 (Esophageal Adenocarcinoma). The method in brief:
as §1

For a further experiment, the system named is G-361 (Melanoma). The method in brief: as §1
In experiment [4] the test system is IM-95 (Gastric Carcinoma). The method in brief: as §1
In experiment [5] the test system is KMS-12-BM (Plasma Cell Myeloma). The method in brief:
as §1

Experiment [6] deals with KP-3 (Pancreatic Carcinoma). The method in brief:
as §1

Experiment [7] has as its system KU812 (Chronic Myelogenous Leukemia). The method in brief: as §1
Experiment [8] has as its system KYSE-270 (Esophageal Squamous Cell Carcinoma). The method in brief:
as §1

In experiment [9] the test system is MN-60 (B-Lymphoblastic Leukemia). The method in brief:
as §1

Experiment [10] relates to MOG-G-CCM (Low Grade Glioma). The method in brief:
as §1

The subject of experiment [11] is MOLM-13 (Acute Myeloid Leukemia). The method in brief:
as §1

Another experiment concerns NCI-H2731 (Mesothelioma). The method in brief: as §1
Experiment [12] has as its system NCI-H3122 (Lung Adenocarcinoma). The method in brief: as §1
Experiment [13] relates to NCI-H661 (Non-Small Cell Lung Carcinoma). The method in brief:
as §1

Experiment [14] deals with NCI-H929 (Plasma Cell Myeloma). The method in brief:
as §1

Experiment [15] deals with RPMI-8226 (Plasma Cell Myeloma). The method in brief: as §1
A further experiment relates to SJSA-1 (Osteosarcoma). The method in brief: as §1
Experiment [16] relates to SK-GT-2 (Gastric Carcinoma). The method in brief:
as §1

Experiment [17] deals with SUP-B15 (B-Lymphoblastic Leukemia). The method in brief:
as §1

In the case of `Cn1cnc2c(F)c(Nc3ccc(Br)cc3Cl)c(C(=O)NOCCO)cc21` [Selumetinib] + C[C@@H]1COCCN1C2=NC(=NC(=C2)C3(CC3)[S@](=N)(=O)C)C4=C5C=CNC5=NC=C4 [AZD6738] (first compound max 10 µM, 7x7, partner max 10 µM), the “combination Emax” value in [1] worked out at 0.515; in [2] it was 0.626; in [3], 0.857; with G-361 (Melanoma) it was 0.848; in experiment [4], 0.304; in [5], 0.865. Besides, the “combination Emax” value is 0.156 in experiment [6]; 0.969 in [7]; 0.524 in experiment [8]; 0.56 in [9]; 0.502 in [10]; 1 in [11]. For the same compound, the “combination Emax” value was 0.173 in the experiment with NCI-H2731 (Mesothelioma); 0.734 in experiment [12]; 0.396 in [13]; 0.882 in experiment [14]; 0.871 in experiment [15]; 0.559 in the experiment with SJSA-1 (Osteosarcoma). Besides, the “combination Emax” value in experiment [16] came out at 0.186; in experiment [17] it was 0.986.

With `CC1(C)CCC(CN2CCN(c3ccc(C(=O)NS(=O)(=O)c4ccc(NCC5CCOCC5)c([N+](=O)[O-])c4)c(Oc4cnc5[nH]ccc5c4)c3)CC2)=C(c2ccc(Cl)cc2)C1` [Venetoclax] + C[C@@H](Nc1cc(F)cc(F)c1)c1cc(C(=O)N(C)C)cc2c(=O)cc(N3CCOCC3)oc12 [AZD8186] (first compound max 1 µM, 7x7, partner max 3 µM), the “combination Emax” value in experiment [1] stood at 0.109; in experiment [2], 0.394; in experiment [3] it was 0.334; in the experiment with G-361 (Melanoma), 0.248; in [4], 0.208; in experiment [5] it was 1. The “combination Emax” value in [6] was found to be 0.0603; in experiment [7] it was 0.205; in experiment [8], 0.653; in experiment [9], 0.418; in experiment [10], 0.398; in experiment [11], 1. For the same compound, the “combination Emax” value with NCI-H2731 (Mesothelioma) amounted to 0.107; in experiment [12] it was 0.134; in experiment [13] it was 0.164; in experiment [14], 0.811; in experiment [15], 0.194; with SJSA-1 (Osteosarcoma), 0.123. Further, the “combination Emax” value was found to be 0.0218 in [16] and 1 in experiment [17].

In the case of `CN(CCO)CC[C@H](CSc1ccccc1)Nc1ccc(S(=O)(=O)NC(=O)c2ccc(N3CCC([C@@H](O)c4ccccc4-c4ccc(Cl)cc4)CC3)cc2)cc1S(=O)(=O)C(F)(F)F` [AZD4320] + Cc1cc2ncnn2cc1Nc1ncc2c(n1)n(C1CCOCC1)c(=O)n2C [AZD7648] (first compound max 1 µM, 7x7, partner max 10 µM), the “combination Emax” value in experiment [1] is 0.484; in experiment [2] it was 0.976; in experiment [3], 0.149; in the experiment with G-361 (Melanoma) it was 0.205; in experiment [4] it was 0.6; in experiment [5], 1. The “combination Emax” value in experiment [6] was found to be 0.0376; in experiment [7] it was 0.872; in experiment [8], 0.0273; in experiment [9], 0.226; in experiment [10], 0.558; in experiment [11], 1. For the same compound, the “combination Emax” value with NCI-H2731 (Mesothelioma) was 0.117; in experiment [12], 0.305; in experiment [13] it was 0.0745; in experiment [14] it was 0.737; in experiment [15], 0.965; with SJSA-1 (Osteosarcoma), 0.283. In addition, the “combination Emax” value was 0.245 in experiment [16] and 1 in experiment [17].

`COc1cccc(OCCCN)c1-c1cc(Nc2cnc(C#N)cn2)n[nH]1` [Prexasertib] + CCc1c2c(nc3ccc(O)cc13)-c1cc3c(c(=O)n1C2)COC(=O)[C@]3(O)CC [SN-38] (first compound max 1 µM, 7x7, partner max 0.3 µM): the “combination Emax” value in experiment [1] is 0.854; in experiment [2] it was 1; in experiment [3], 0.879; with G-361 (Melanoma), 0.727; in experiment [4], 0.602; in experiment [5] it was 1. Besides, the “combination Emax” value in experiment [6] stood at 0.57; in experiment [7], 0.794; in [8], 1; in experiment [9], 0.825; in experiment [10], 0.894; in experiment [11], 1. Besides, the “combination Emax” value turned out to be 0.663 in the experiment on NCI-H2731 (Mesothelioma); 0.933 in experiment [12]; 0.889 in experiment [13]; 0.865 in experiment [14]; 1 in [15]; 0.743 in the experiment with SJSA-1 (Osteosarcoma). Further, the “combination Emax” value is 0.975 in [16] and 1 in [17].

Take `COc1nnc2ccc(N3CCC(c4ccc(OCCN5CCN(C)C(=O)[C@H]5C)cc4)CC3)nn12` [AZD5153] + Cc1c2c(nn1C)CSCc1cc(n(C)n1)CSc1cc(c3ccccc3c1)OCCCc1c(C(=O)O)n(C)c3c-2c(Cl)ccc13 [AZD5991] (first compound max 1 µM, 7x7, partner max 1 µM): the “combination Emax” value is 0.475 in experiment [1]; 0.982 in experiment [2]; 0.708 in [3]; 0.997 in the experiment on G-361 (Melanoma); 0.798 in experiment [4]; 1 in experiment [5]. The “combination Emax” value was 0.275 in experiment [6]; 0.987 in experiment [7]; 0.942 in experiment [8]; 0.719 in [9]; 0.652 in [10]; 1 in experiment [11]. The “combination Emax” value in the experiment on NCI-H2731 (Mesothelioma) was 0.528; in experiment [12], 0.691; in [13] it was 0.891; in experiment [14], 1; in experiment [15] it was 1; with SJSA-1 (Osteosarcoma), 0.553. Further, the results for the “combination Emax” value in experiment [16] and in experiment [17] were 0.319 and 1, respectively.

Consider `Cc1nc(Nc2ncc(C(=O)Nc3c(C)cccc3Cl)s2)cc(N2CCN(CCO)CC2)n1` [Dasatinib] + CC(=O)Nc1cccc(-n2c(=O)n(C3CC3)c(=O)c3c(Nc4ccc(I)cc4F)n(C)c(=O)c(C)c32)c1 [Trametinib] (first compound max 2 µM, 7x7, partner max 1 µM), for which the “combination Emax” value in [1] stood at 0.628; in [2], 0.254; in experiment [3] it was 0.949; in the experiment with G-361 (Melanoma), 0.753; in experiment [4], 0.288; in experiment [5] it was 0.396. Also, the “combination Emax” value in experiment [6] came out at 0.61; in experiment [7] it was 1; in experiment [8] it was 0.603; in experiment [9] it was 0.27; in [10] it was 0.741; in [11], 0.955. For the same compound, the “combination Emax” value in the experiment on NCI-H2731 (Mesothelioma) stood at 0.361; in [12] it was 0.705; in [13], 0.502; in [14], 0.992; in experiment [15], 0.239; in the experiment on SJSA-1 (Osteosarcoma), 0.522. Further, the figures for the “combination Emax” value in experiment [16] and in [17] were 0.545 and 0.952, respectively.
